Reference: article PMC9080233, “Synthesis and biological evaluation of novel quinolone derivatives dual targeting histone deacetylase and tubulin polymerization as antiproliferative agents” (RSC Advances, 2018)

How the values were obtained:
human recombinant HDAC1 = biological target: T1, human recombinant HDAC1 (Homo sapiens, UniProt Q13547); experiment: HDAC activity assay (fluorogenic HDAC assay kit), HDAC1; assay type: biochemical; conditions: human recombinant HDAC1, 37 °C, 30 min
T1 construct: purchased BPS Bioscience, CA
Description: (§2) HDAC activity was measured using fluorogenic HDACs assay kit (BPS Bioscience, CA) according to the manufacturer's protocol. […] Fluorescence values were measured at an excitation of 350 nm and an emission of 440 nm using SpectraMax M2 microplate reader. IC50 values were calculated using Origin software. IC50 values were determined using nonlinear regression analysis.

human recombinant HDAC2 = biological target: T2, human recombinant HDAC2 (Homo sapiens, UniProt Q92769); experiment: HDAC activity assay (fluorogenic HDAC assay kit), HDAC2; assay type: biochemical; conditions: human recombinant HDAC2, 37 °C, 30 min
T2 construct: purchased BPS Bioscience, CA
Description: as §2

human recombinant HDAC6 = biological target: T3, human recombinant HDAC6 (Homo sapiens, UniProt Q9UBN7); experiment: HDAC activity assay (fluorogenic HDAC assay kit), HDAC6; assay type: biochemical; conditions: for IC50: human recombinant HDAC6, 37 °C, 30 min; for Selectivity index HDAC6/1: ratio of IC50 HDAC1 to IC50 HDAC6; for Selectivity index HDAC6/2: ratio of IC50 HDAC2 to IC50 HDAC6;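 as to all read-outs here: underlying HDAC activity read as fluorescence, excitation 350 nm and emission 440 nm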
T3 construct: purchased BPS Bioscience, CA
T3 sequence (Q9UBN7 1-1215): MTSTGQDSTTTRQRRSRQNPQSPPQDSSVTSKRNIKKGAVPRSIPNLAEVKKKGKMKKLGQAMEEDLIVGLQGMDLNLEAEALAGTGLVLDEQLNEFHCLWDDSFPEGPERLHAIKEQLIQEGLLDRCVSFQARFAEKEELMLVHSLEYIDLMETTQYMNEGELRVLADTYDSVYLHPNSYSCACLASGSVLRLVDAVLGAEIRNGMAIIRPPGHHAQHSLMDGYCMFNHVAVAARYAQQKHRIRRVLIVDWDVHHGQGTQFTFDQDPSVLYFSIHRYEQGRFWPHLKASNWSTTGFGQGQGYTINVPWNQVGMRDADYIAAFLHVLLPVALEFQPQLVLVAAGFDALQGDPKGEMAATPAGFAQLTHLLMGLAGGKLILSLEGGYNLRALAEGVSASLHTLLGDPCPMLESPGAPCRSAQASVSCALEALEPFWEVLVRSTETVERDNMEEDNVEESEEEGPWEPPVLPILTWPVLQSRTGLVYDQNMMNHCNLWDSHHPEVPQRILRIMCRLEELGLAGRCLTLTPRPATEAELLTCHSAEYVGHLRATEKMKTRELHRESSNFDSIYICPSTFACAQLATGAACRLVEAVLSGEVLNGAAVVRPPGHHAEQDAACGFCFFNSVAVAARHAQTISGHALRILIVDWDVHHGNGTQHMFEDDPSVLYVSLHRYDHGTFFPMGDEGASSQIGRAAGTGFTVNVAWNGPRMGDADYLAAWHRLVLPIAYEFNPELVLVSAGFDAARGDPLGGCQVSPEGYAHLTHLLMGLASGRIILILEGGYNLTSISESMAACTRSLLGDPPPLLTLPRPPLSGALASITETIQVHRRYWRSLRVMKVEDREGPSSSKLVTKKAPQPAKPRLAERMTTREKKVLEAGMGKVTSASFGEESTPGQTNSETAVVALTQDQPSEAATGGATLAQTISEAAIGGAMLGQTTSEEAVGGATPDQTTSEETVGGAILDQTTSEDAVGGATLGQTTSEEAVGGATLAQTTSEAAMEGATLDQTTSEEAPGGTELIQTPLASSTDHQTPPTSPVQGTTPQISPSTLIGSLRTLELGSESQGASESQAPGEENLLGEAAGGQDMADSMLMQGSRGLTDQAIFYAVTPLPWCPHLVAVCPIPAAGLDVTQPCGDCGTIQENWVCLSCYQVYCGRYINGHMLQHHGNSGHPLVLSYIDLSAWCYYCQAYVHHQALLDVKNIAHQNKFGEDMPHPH
Description: as §2

tubulin = experiment: Tubulin polymerization assay; assay type: biochemical; conditions: in words
Description: Tubulin polymerization assay was performed using a fluorescence-based tubulin polymerization assay Kit (BK011, Cytoskeleton, Inc.) according to the manufacturer's protocol. […] After addition of polymerization buffer and 0.4 mM GTP, the reaction mixtures were transferred to 0 °C cuvettes in a recording spectrophotometer. […] Data from each well was normalized relative to initial readings,[43] and plots of ΔODmax (final−initial values) against compound concentration, expressed relative to vehicle control (DMSO only), were used to calculate IC50 values.[44] IC50 values were determined using nonlinear regression analysis.

[1] = system: human lung adenocarcinoma cells A549; experiment: Antiproliferative activity, CCK-8 assay, A549; assay type: cell-based; conditions: CCK-8, 72 hours, mean ± SD
Description: (§3) Antitumor activities in vitro of synthetic compounds were measured using CCK-8 Assay Kit (BPS Bioscience, CA) according to the manufacturer's protocol. […] Control cells were treated with serum free medium. Then CCK-8 solution was added to each well to determine cell viability. The IC50 values were calculated according to the dose-dependent curves (Origin software). IC50 values were determined using nonlinear regression analysis.

liver cancer cells HepG2 = experiment: Antiproliferative activity, CCK-8 assay, HepG2; assay type: cell-based; conditions: Homo sapiens, CCK-8, 72 hours, mean ± SD
Description: as §3

[2] = system: breast cancer cells MCF-7; experiment: Antiproliferative activity, CCK-8 assay, MCF-7; assay type: cell-based; conditions: Homo sapiens, MCF7; CCK-8, 72 hours; mean ± SD
Description: as §3

[3] = system: prostate cancer cells PC-3; experiment: Antiproliferative activity, CCK-8 assay, PC-3; assay type: cell-based; conditions: Homo sapiens; CCK-8, 72 hours; mean ± SD
Description: as §3

[4] = system: human cervical carcinoma cells HeLa; experiment: Antiproliferative activity, CCK-8 assay, HeLa; assay type: cell-based; conditions: CCK-8, 72 hours, mean ± SD, read-out: IC50 HeLa
Description: (§1) Antitumor activities in vitro of synthetic compounds were measured using CCK-8 Assay Kit (BPS Bioscience, CA) according to the manufacturer's protocol. Cells were plated into 96-well plates with appropriate test compounds for 72 hours. Control cells were treated with serum free medium. Then CCK-8 solution was added to each well to determine cell viability. The IC50 values were calculated according to the dose-dependent curves (Origin software). IC50 values were determined using nonlinear regression analysis.

healthy MCF-10A cells = experiment: Toxicity to healthy cells, CCK-8 assay, MCF-10A; assay type: cell-based; conditions: Homo sapiens, MCF-10A; healthy cells, CCK-8, 72 hours; >100 = not determinable up to highest concentrations tested
Description: as §3

[5] = system: five cancer cells, A549, HepG2, MCF-7, PC-3, HeLa; experiment: Antiproliferative activity, CCK-8 assay, statements on all five cancer cell lines; assay type: cell-based, human
Description: as §1

tubulin, sequence (P02550 whole entry): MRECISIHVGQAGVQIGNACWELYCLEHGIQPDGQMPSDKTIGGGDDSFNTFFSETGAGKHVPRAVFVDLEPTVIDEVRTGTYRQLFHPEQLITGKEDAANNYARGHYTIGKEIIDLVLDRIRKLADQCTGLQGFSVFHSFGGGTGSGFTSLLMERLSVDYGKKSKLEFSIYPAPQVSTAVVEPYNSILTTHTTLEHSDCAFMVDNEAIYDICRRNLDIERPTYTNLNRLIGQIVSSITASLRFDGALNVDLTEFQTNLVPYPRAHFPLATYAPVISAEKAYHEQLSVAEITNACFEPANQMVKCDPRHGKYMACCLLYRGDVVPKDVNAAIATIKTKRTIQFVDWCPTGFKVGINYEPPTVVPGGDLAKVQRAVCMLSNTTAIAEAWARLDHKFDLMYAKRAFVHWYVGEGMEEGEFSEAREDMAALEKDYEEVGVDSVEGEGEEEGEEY
tubulin, sequence (P02554 whole entry, further chain): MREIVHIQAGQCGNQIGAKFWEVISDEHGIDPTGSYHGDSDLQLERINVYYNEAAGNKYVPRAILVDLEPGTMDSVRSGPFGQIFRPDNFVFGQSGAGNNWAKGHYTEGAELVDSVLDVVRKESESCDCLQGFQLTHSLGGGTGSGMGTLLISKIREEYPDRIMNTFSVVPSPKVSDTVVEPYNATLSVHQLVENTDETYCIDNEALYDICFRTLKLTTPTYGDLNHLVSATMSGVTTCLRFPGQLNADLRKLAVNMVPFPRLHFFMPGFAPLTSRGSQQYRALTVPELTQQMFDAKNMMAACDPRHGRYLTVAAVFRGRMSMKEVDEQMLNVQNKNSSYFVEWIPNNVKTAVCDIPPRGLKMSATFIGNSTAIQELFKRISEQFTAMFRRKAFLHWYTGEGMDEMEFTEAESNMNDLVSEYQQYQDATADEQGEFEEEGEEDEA
T2 sequence (Q92769 whole entry): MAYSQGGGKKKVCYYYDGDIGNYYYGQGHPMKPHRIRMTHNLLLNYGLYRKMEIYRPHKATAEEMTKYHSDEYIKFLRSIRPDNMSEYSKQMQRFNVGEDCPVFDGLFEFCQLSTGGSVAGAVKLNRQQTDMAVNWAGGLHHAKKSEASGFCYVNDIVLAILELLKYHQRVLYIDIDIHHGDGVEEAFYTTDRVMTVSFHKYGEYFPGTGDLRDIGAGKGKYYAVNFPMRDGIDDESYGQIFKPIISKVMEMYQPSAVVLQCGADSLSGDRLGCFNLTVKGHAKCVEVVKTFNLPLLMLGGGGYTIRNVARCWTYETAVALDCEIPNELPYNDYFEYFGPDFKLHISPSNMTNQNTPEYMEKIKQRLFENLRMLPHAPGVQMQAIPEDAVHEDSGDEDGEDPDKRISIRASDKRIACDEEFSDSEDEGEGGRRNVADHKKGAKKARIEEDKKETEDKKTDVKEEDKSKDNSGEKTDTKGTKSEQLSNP
T1 sequence (Q13547 whole entry): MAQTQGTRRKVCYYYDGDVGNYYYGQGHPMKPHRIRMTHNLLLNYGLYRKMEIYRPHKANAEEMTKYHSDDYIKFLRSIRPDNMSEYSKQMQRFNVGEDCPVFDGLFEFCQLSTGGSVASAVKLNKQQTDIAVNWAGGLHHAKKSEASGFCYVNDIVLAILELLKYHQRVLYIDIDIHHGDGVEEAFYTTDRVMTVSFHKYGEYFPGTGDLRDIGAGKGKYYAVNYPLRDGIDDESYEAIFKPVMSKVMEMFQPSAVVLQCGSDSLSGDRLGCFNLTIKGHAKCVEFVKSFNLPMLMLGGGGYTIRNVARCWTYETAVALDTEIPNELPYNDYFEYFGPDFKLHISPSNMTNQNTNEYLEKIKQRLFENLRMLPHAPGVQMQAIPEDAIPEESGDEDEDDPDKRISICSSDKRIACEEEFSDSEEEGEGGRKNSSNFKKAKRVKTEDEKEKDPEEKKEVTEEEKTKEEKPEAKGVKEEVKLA

| Compound | IC50 (human recombinant HDAC1) [µM] | IC50 (human recombinant HDAC2) [µM] | IC50 (human recombinant HDAC6) [µM] | Selectivity index HDAC6/1 (human recombinant HDAC6) | Selectivity index HDAC6/2 (human recombinant HDAC6) | tubulin polymerization inhibition compared with reference compound (tubulin) | IC50 [1] [µM] | IC50 (liver cancer cells HepG2) [µM] | IC50 [2] [µM] | IC50 [3] [µM] | IC50 [4] [µM] | IC50 (healthy MCF-10A cells) [µM] | melting point [°C] | fold more potent than levofloxacin, antiproliferative activity ([5]; against all cancer cells) | IC50 ([5]; Homo sapiens, A549, HepG2, MCF-7, PC-3, HeLa, read-out: IC50 proliferation of the five cancer cells) [µM] |
| --- | --- | --- | --- | --- | --- | --- | --- | --- | --- | --- | --- | --- | --- | --- | --- |
| C[C@H]1COc2c(N3CCN(C)CC3)c(F)cc3c(=O)c(C(=O)OCc4cn(CCCCCCC(=O)NO)nn4)cn1c23 [Compound 8b, (S)-(1-(7-(hydroxyamino)-7-oxoheptyl)-1H-1,2,3-triazol-4-yl)methyl-9-fluoro-3-methyl-10-(4-methylpiperazin-1-yl)-7-oxo-3,7-dihydro-2H-[1,4]oxazino[2,3,4-ij]quinoline-6-carboxylate] | 0.067 ± 0.019 | 0.082 ± 0.015 | 0.03 ± 0.019 | 2.2 | 2.7 | equipotent to reference compound CA-4 | 3.5 ± 0.17 | 5.2 ± 0.56 | 0.8 ± 0.15 | 8.5 ± 0.79 | 2.7 ± 0.17 | > 100 |  |  |  |
| C[C@H]1COc2c(N3CCN(C)CC3)c(F)cc3c(=O)c(C(=O)NCc4cn(CCCCCCC(=O)O)nn4)cn1c23 [Compound 7b, (S)-7-(4-((9-fluoro-3-methyl-10-(4-methylpiperazin-1-yl)-7-oxo-3,7-dihydro-2H-[1,4]oxazino[2,3,4-ij]quinoline-6-carboxamido)methyl)-1H-1,2,3-triazol-1-yl)heptanoic acid] | 2.1 ± 0.37 | 4.6 ± 0.62 | 1.1 ± 0.28 | 1.9 | 4.2 | equipotent to reference compound CA-4 | 9.3 ± 0.82 | 9.9 ± 0.62 | 7.8 ± 0.71 | 11.1 ± 1.16 | 8.4 ± 0.62 | > 100 | 187 to 190 |  |  |
| C[C@H]1COc2c(N3CCN(C)CC3)c(F)cc3c(=O)c(C(=O)NCc4cn(CCCCCCC(=O)NO)nn4)cn1c23 [Compound 9b, (S)-9-Fluoro-N-((1-(7-(hydroxyamino)-7-oxoheptyl)-1H-1,2,3-triazol-4-yl)methyl)-3-methyl-10-(4methylpiperazin-1-yl)-7-oxo-3,7-dihydro-2H-[1,4]oxazino[2,3,4-ij]quinoline-6-carboxamide] | 0.029 ± 0.018 | 0.041 ± 0.014 | 0.021 ± 0.007 | 1.4 | 2.0 | equipotent to reference compound CA-4 | 2.1 ± 0.26 | 2.3 ± 0.31 | 0.3 ± 0.14 | 4.9 ± 0.43 | 1.1 ± 0.15 | > 100 |  | over 20 fold |  |
| C[C@H]1COc2c(N3CCN(C)CC3)c(F)cc3c(=O)c(C(=O)O)cn1c23 [Levofloxacin, levofloxacin, reference compound] |  |  |  |  |  |  | 76.3 ± 6.51 | > 100 | 64.2 ± 5.67 | > 100 | 71.1 ± 4.98 | > 100 |  |  | > 70 |
